“And” between values parts separate entries of the source, which are not always exact repeats. Equal entries are not always repeated. Toxic doses and inconclusive results are not listed. Rule as the data show it: active = T/C of 150% or more; inactive = T/C below 125%.
System: L1210 leukemia ip in BDF1 mice, survival T/C
Assay: NCI In Vivo Anticancer Drug Screen. Data for tumor model L1210 Leukemia (intraperitoneal) in B6D2F1 (BDF1) mice
Conditions: endpoint: mean survival time, higher = longer survival
Procedure, shortened: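 Antitumor effect is assessed in tumor-bearing animals. Survival in the compound arm is compared with a vehicle-dosed control arm and expressed as their quotient.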

[1] = dose: 100.0 mg/kg/injection, schedule: Q01DX001 (ip), vehicle: carboxymethylcellulose (CMC)
[2] = dose: 200.0 mg/kg/injection, schedule: Q01DX001 (ip), vehicle: carboxymethylcellulose (CMC)
[3] = dose: 400.0 mg/kg/injection, schedule: Q01DX001 (ip), vehicle: carboxymethylcellulose (CMC)
[4] = dose: 100.0 mg/kg/injection, schedule: Q01DX009 (ip), vehicle: other
[5] = dose: 200.0 mg/kg/injection, schedule: Q01DX009 (ip), vehicle: other
[6] = dose: 50.0 mg/kg/injection, schedule: Q01DX009 (ip), vehicle: Klucel (hydroxypropylcellulose) (HPC)
[7] = dose: 100.0 mg/kg/injection, schedule: Q01DX009 (ip), vehicle: Klucel (hydroxypropylcellulose) (HPC)
[8] = dose: 100.0 mg/kg/injection, schedule: Q04DX003 (ip), vehicle: Klucel (hydroxypropylcellulose) (HPC)
[9] = dose: 200.0 mg/kg/injection, schedule: Q04DX003 (ip), vehicle: Klucel (hydroxypropylcellulose) (HPC)
[10] = dose: 400.0 mg/kg/injection, schedule: Q04DX003 (ip), vehicle: Klucel (hydroxypropylcellulose) (HPC)
[11] = dose: 100.0 mg/kg/injection, schedule: Q01DX001 (ip), vehicle: Klucel (hydroxypropylcellulose) (HPC)
[12] = dose: 200.0 mg/kg/injection, schedule: Q01DX001 (ip), vehicle: Klucel (hydroxypropylcellulose) (HPC)
[13] = dose: 400.0 mg/kg/injection, schedule: Q01DX001 (ip), vehicle: Klucel (hydroxypropylcellulose) (HPC)
[14] = dose: 100.0 mg/kg/injection, schedule: Q01DX009 (ip), vehicle: saline
[15] = dose: 200.0 mg/kg/injection, schedule: Q01DX009 (ip), vehicle: saline
[16] = dose: 400.0 mg/kg/injection, schedule: Q01DX009 (ip), vehicle: saline
[17] = dose: 100.0 mg/kg/injection, schedule: Q04DX003 (ip), vehicle: saline
[18] = dose: 200.0 mg/kg/injection, schedule: Q04DX003 (ip), vehicle: saline
[19] = dose: 400.0 mg/kg/injection, schedule: Q04DX003 (ip), vehicle: saline
[20] = dose: 100.0 mg/kg/injection, schedule: Q01DX009 (ip), vehicle: saline with Tween-80
[21] = dose: 200.0 mg/kg/injection, schedule: Q01DX009 (ip), vehicle: Klucel (hydroxypropylcellulose) (HPC)
[22] = dose: 400.0 mg/kg/injection, schedule: Q01DX009 (ip), vehicle: Klucel (hydroxypropylcellulose) (HPC)
[23] = dose: 100.0 mg/kg/injection, schedule: Q01DX001 (ip), vehicle: saline
[24] = dose: 200.0 mg/kg/injection, schedule: Q01DX001 (ip), vehicle: saline
[25] = dose: 400.0 mg/kg/injection, schedule: Q01DX001 (ip), vehicle: saline

Measured: T/C

O=[N+]([O-])c1ccc(O)c(CN(Cc2ccccc2)Cc2c(O)ccc3ccccc23)c1
inactive: [1] 98 % of control | [2] 93 % of control | [3] 96 % of control

N#CCCSP(=S)(Oc1ccccc1)Oc1ccccc1
inactive: [4] 100 % of control | [5] 100 % of control | dose: 400.0 mg/kg/injection, schedule: Q01DX009 (ip), vehicle: other 94 % of control

N#CC(C#N)=Cc1ccc(C=C(C#N)C#N)cc1
inactive: dose: 25.0 mg/kg/injection, schedule: Q04DX003 (ip), vehicle: Klucel (hydroxypropylcellulose) (HPC) 98 % of control | [6] 103 % of control | dose: 50.0 mg/kg/injection, schedule: Q04DX003 (ip), vehicle: Klucel (hydroxypropylcellulose) (HPC) 98 % of control | [7] 86 % of control | [8] 98 % of control and 105 % of control | [9] 100 % of control | [10] 108 % of control

CON=C(c1ccc(N(C)C)cc1)c1ccc(N(C)C)cc1
inactive: [11] 104 % of control | [8] 103 % of control | [12] 101 % of control | [9] 100 % of control | [13] 101 % of control | [10] 92 % of control

COc1ccc(/C=C/c2c3cc(OC)c(OC)cc3cc3c4cc(OC)c(OC)cc4cc[n+]23)cc1OC
inactive: [1] 93 % of control and 108 % of control | dose: 100.0 mg/kg/injection, schedule: Q04DX002 (ip), vehicle: carboxymethylcellulose (CMC) 96 % of control and 89 % of control | dose: 100.0 mg/kg/injection, schedule: Q04DX003 (ip), vehicle: carboxymethylcellulose (CMC) 97 % of control | [2] 97 % of control and 100 % of control | dose: 200.0 mg/kg/injection, schedule: Q04DX002 (ip), vehicle: carboxymethylcellulose (CMC) 100 % of control and 87 % of control | dose: 200.0 mg/kg/injection, schedule: Q04DX003 (ip), vehicle: carboxymethylcellulose (CMC) 92 % of control | [3] 102 % of control and 90 % of control | dose: 400.0 mg/kg/injection, schedule: Q04DX002 (ip), vehicle: carboxymethylcellulose (CMC) 86 % of control and 92 % of control | dose: 400.0 mg/kg/injection, schedule: Q04DX003 (ip), vehicle: carboxymethylcellulose (CMC) 101 % of control

CCCCCCCCCCCCCCCCCCOc1ccccc1
inactive: dose: 100.0 mg/kg/injection, schedule: Q01DX009 (sc), vehicle: olive oil, sesame oil, peanut oil 94 % of control | dose: 100.0 mg/kg/injection, schedule: Q04DX003 (sc), vehicle: olive oil, sesame oil, peanut oil 95 % of control | dose: 200.0 mg/kg/injection, schedule: Q01DX009 (sc), vehicle: olive oil, sesame oil, peanut oil 99 % of control | dose: 200.0 mg/kg/injection, schedule: Q04DX003 (sc), vehicle: olive oil, sesame oil, peanut oil 101 % of control | dose: 400.0 mg/kg/injection, schedule: Q01DX009 (sc), vehicle: olive oil, sesame oil, peanut oil 94 % of control | dose: 400.0 mg/kg/injection, schedule: Q04DX003 (sc), vehicle: olive oil, sesame oil, peanut oil 108 % of control

CN(C)Cc1ccccc1COC(=O)c1cccc(Br)c1
inactive: dose: 100.0 mg/kg/injection, schedule: Q04DX002 (ip), vehicle: Klucel (hydroxypropylcellulose) (HPC) 98 % of control | dose: 200.0 mg/kg/injection, schedule: Q04DX002 (ip), vehicle: Klucel (hydroxypropylcellulose) (HPC) 102 % of control

O=C(O)C1CC2CCC1C2 (stereo not drawn)
inactive: [14] 100 % of control | [15] 104 % of control | [16] 92 % of control

[CH3][Pb]([CH3])([CH3])[O]C(=O)C(F)(F)F
inactive: dose: 12.5 mg/kg/injection, schedule: Q04DX002 (ip), vehicle: saline 90 % of control

CC(C)(C)OB(OC(C)(C)C)OC(C)(C)C
inactive: dose: 25.0 mg/kg/injection, schedule: Q01DX009 (ip), vehicle: other 105 % of control | dose: 50.0 mg/kg/injection, schedule: Q01DX009 (ip), vehicle: other 98 % of control | [4] 109 % of control | [17] 98 % of control | [5] 104 % of control | [18] 102 % of control | [19] 109 % of control

OC12Cc3ccccc3C1=NN(c1ccccc1)C2c1ccccc1 (stereo not drawn)
inactive: dose: 25.0 mg/kg/injection, schedule: Q01DX009 (ip), vehicle: saline with Tween-80 101 % of control | dose: 50.0 mg/kg/injection, schedule: Q01DX009 (ip), vehicle: saline with Tween-80 104 % of control | [20] 90 % of control | dose: 100.0 mg/kg/injection, schedule: Q04DX003 (ip), vehicle: saline with Tween-80 93 % of control | dose: 200.0 mg/kg/injection, schedule: Q04DX003 (ip), vehicle: saline with Tween-80 97 % of control | dose: 400.0 mg/kg/injection, schedule: Q04DX003 (ip), vehicle: saline with Tween-80 91 % of control

Cc1c(CC#N)cc(C)c2c3c([nH]c12)CCCC3
inactive: [6] 95 % of control | [7] 98 % of control | [21] 91 % of control

O=C(/C=C/C(=O)Oc1c(Cl)c(Cl)c(Cl)c(Cl)c1Cl)Oc1c(Cl)c(Cl)c(Cl)c(Cl)c1Cl
inactive: [7] 100 % of control | [8] 111 % of control | [21] 104 % of control | [9] 93 % of control | [22] 100 % of control | [10] 105 % of control

COc1cc(N(CCCl)CCCl)ccc1C1N(Cc2ccc(N(C)C)cc2)CCCN1Cc1ccc(N(C)C)cc1
inactive: [8] 100 % of control | [9] 107 % of control | [10] 104 % of control

O=NN(CCCCl)C(=O)NC1CCCCC1
inactive: dose: 12.5 mg/kg/injection, schedule: Q01DX001 (ip), vehicle: saline 103 % of control | dose: 25.0 mg/kg/injection, schedule: Q01DX001 (ip), vehicle: saline 108 % of control | dose: 50.0 mg/kg/injection, schedule: Q01DX001 (ip), vehicle: saline 103 % of control | [23] 103 % of control | [24] 102 % of control | dose: 300.0 mg/kg/injection, schedule: Q01DX001 (ip), vehicle: saline 106 % of control | [25] 110 % of control | dose: 500.0 mg/kg/injection, schedule: Q01DX001 (ip), vehicle: saline 100 % of control | dose: 600.0 mg/kg/injection, schedule: Q01DX001 (ip), vehicle: saline 106 % of control | dose: 800.0 mg/kg/injection, schedule: Q01DX001 (ip), vehicle: saline 112 % of control | dose: 1000.0 mg/kg/injection, schedule: Q01DX001 (ip), vehicle: saline 103 % of control

COc1ccc(C(C(N)=O)N2CCCCC2)cc1 (stereo not drawn)
inactive: [7] 95 % of control | [8] 107 % of control | [21] 88 % of control | [9] 94 % of control | [22] 91 % of control | [10] 102 % of control

CC(C)(CNc1ccc(C(=O)O)cc1)[N+](=O)[O-]
inactive: [14] 93 % of control | [17] 95 % of control | [15] 90 % of control | [18] 98 % of control | [16] 87 % of control | [19] 90 % of control

COc1cc(OC)cc(C(=O)Cl)c1
inactive: [20] 100 % of control | dose: 200.0 mg/kg/injection, schedule: Q01DX009 (ip), vehicle: saline with Tween-80 103 % of control | dose: 400.0 mg/kg/injection, schedule: Q01DX009 (ip), vehicle: saline with Tween-80 86 % of control

O=c1c(Br)c(Cl)nc2ccccn12
inactive: [23] 95 % of control | [24] 96 % of control | [25] 93 % of control

CCOP(OCC)SSCn1nc2ccc3ccccc3n2c1=O
inactive: [6] 101 % of control

CCC(=O)c1c(C)[nH]c(C)c1C
inactive: [11] 96 % of control | [12] 95 % of control | [13] 96 % of control

From PubChem BioAssay AID248 (DTP/NCI, 2004)
